In patent US7125853B2, “Bicyclic carbohydrate compounds useful in the treatment of infections caused by Flaviviridae sp., such as hepatitis C and bovine viral diarrhea viruses” (Kemin Pharma B.V.B.A., priority 2003, dated 2006):
Values after ≈ are worked out from the molar mass of the structure shown.

Tests used:
HIV-1 (IIIB) = test: HIV-1-induced cytopathicity in CEM cell cultures; format: cell-based, human immunodeficiency virus; conditions: human lymphocyte CEM cell cultures
HIV-2 (ROD) = format: cell-based, human immunodeficiency virus; conditions: HIV-induced cytopathicity, human lymphocyte CEM cell cultures
VV = format: cell-based, vaccinia virus; conditions: VV-induced cytopathicity, human embryo fibroblast E6SM cell cultures
MDBK cells = test: cytotoxicity in MDBK cells (MTS method); format: cell-based, bovine; conditions: minimal toxic concentration causing >=20% reduction in cell metabolism; highest concentration 100 μg/ml
Procedure: (§1) The compounds were also screened against flaviviruses. Due to the fact that there is no adequate in vitro assay to screen against HCV, we opted to screen against the bovine viral diarrhea virus (BVDV), as it shares many similarities with the hepatitis C virus. Antiviral activity was assessed using the Pe 515 strain of BVDV on Madin Darby bovine kidney cells (MDBK cells). Both antiviral activity and cytotoxicity was determined by means of the MTS method. The EC50 is the concentration required to reduce virus induced cytopathic effect by 50%. The MTC (minimal toxic concentration) was defined as the concentration that caused >=20% reduction in cell metabolism.

[1] = test system: T. mentagrophytes ATCC 9533; test: antifungal microdilution screening; format: cell-based, Trichophyton mentagrophytes; conditions: 5 days at 30° C., RPMI 1640
Procedure: (§2) Based on the NCCLS documents M7-A4, Vol. 17 No. 2, M27-A, Vol 17 No. 9 and M38-P, Vol 18 No. 13, a microdilution method for conducting the antibacterial and antifungal screenings was developed using a Bioscreen C Analyser (Labsystems, Finland), which is an automated reader-incubator. It measures growth continuously by vertical photometry (optical density), processes the data and provides a print-out of the results. For the bacteria we selected as primary target: Staphylococcus aureus ATCC29213, Enterococcus faecalisATCC 29212, Escherichia coli ATCC 25922 and Pseudomonas aeruginosa ATCC 27853. Candida albicans ATCC 24433 and Cryptococcus neoformans ATCC 90112 were selected as yeast targets. The dermatophyte Trichophyton mentagrophytes ATCC 9533 and the invasive mould Aspergillus fumigatus ATCC 2895 were selected as moulds. All parameters necessary for optimal incubation can be programmed in the Biolink-software (Labsystems, Finland). Incubation for all bacterial screenings was 16 hours at 35° C. The incubation parameters for the screenings against Candida and Cryptococcus were respectively 24 and 48 hours at 35° C., the invasive fungus Aspergillus fumigatus was incubated for 3 days at 30° C. and the dermatophyte T. mentagrophytes was incubated for 5 days at 30° C. As growth media for the bacteria cation adjusted Mueller-Hinton broth (Oxoid, Belgium) was used. A synthetic medium is recommended for fungal susceptibility tests: RPMI 1640, with glutamine, and without bicarbonate and with a pH indicator (Oxoid), supplemented with 1% glucose.25 μl of a 10-fold compound concentration is pipetted into each well. To each 25 μl test compound 225 μl of growth media was added. As measurement tool for the antibacterial and anti-yeast screenings, the area under the growth curve is used, which is automatically determined via the Biolink software. For the screenings against the pathogenic moulds we used endpoint OD-measurement. For internal quality control, reference antibiotics for each micro-organism are incorporated in the set-up of the tests.

E. faecalis ATCC 29212 = test: antibacterial microdilution screening; format: cell-based, Enterococcus faecalis; conditions: 16 hours at 35° C., Mueller-Hinton broth
Procedure: as §2

HSV-2 (G) = format: cell-based, herpes simplex virus; conditions: HSV-induced cytopathicity, human embryo fibroblast E6SM cell cultures
P. aeruginosa ATCC 27853 = test: antibacterial microdilution screening; format: cell-based, Pseudomonas aeruginosa; conditions: 16 hours at 35° C., Mueller-Hinton broth
Procedure: as §2

S. aureus ATCC 29213 = test: antibacterial microdilution screening; format: cell-based, Staphylococcus aureus; conditions: 16 hours at 35° C., Mueller-Hinton broth
Procedure: as §2

[2] = test system: L1210/0, FM3A/0, Molt4/C8 and CEM/0; test: anti-tumor screening, verdict over all tested cell-lines; format: cell-based
C. neoformans ATCC 90112 = test: antifungal microdilution screening; format: cell-based, Cryptococcus neoformans; conditions: 48 hours at 35° C., RPMI 1640
Procedure: as §2

CEM/0 = conditions: human T-lymphocyte cells, proliferation
From the text: (§3) The compounds were also checked for anti-tumor activity via the proliferation of murine leukemia cells (L 1210/0), murine mammary carcinoma cells (FM3A) and human T-lymphocyte cells (Molt4/C8, CEM/0).

Molt4/C8 = conditions: human T-lymphocyte cells, proliferation
From the text: as §3

FM3A/0 = conditions: murine mammary carcinoma cells, proliferation
From the text: as §3

L1210/0 = conditions: murine leukemia cells, proliferation
From the text: as §3

CMV Davis, AD-169 = test: CMV-induced plaque formation in HEL cells; format: cell-based, human cytomegalo virus; conditions: human embryonic lung HEL cells, day 7
A. fumigatus ATCC 2895 = test: antifungal microdilution screening; format: cell-based, Aspergillus fumigatus; conditions: 3 days at 30° C., RPMI 1640
Procedure: as §2

C. albicans ATCC 24433 = test: antifungal microdilution screening; format: cell-based, Candida albicans; conditions: 24 hours at 35° C., RPMI 1640
Procedure: as §2

BVDV strain Pe515 = test: anti-BVDV activity in MDBK cells (MTS method); format: cell-based, bovine viral diarrhea virus; conditions: for anti-viral activity against BVDV (in words): second set of screenings
Procedure: as §1

E. coli ATCC 25922 = test: antibacterial microdilution screening; format: cell-based, Escherichia coli; conditions: 16 hours at 35° C., Mueller-Hinton broth
Procedure: as §2

HSV-1 (KOS) = format: cell-based, herpes simplex virus; conditions: HSV-induced cytopathicity, human embryo fibroblast E6SM cell cultures
VZV OKA = format: cell-based, varicella zoster virus

SMILES | EC50 HIV-1 (IIIB) (CEM) (HIV-1 (IIIB)) | EC50 HIV-2 (ROD) (CEM) (HIV-2 (ROD)) | EC50 VV (E6SM) (VV) | MTC (μg/ml) MDBK (MDBK cells) | MIC T. mentagrophytes ATCC 9533 [1] | MIC E. faecalis ATCC 29212 (E. faecalis ATCC 29212) | EC50 HSV-2 (G) (E6SM) (HSV-2 (G)) | MIC P. aeruginosa ATCC 27853 (P. aeruginosa ATCC 27853) | MIC S. aureus ATCC 29213 (S. aureus ATCC 29213) | anti-tumor activity against all tested cell-lines (in words) [2] | MIC C. neoformans ATCC 90112 (C. neoformans ATCC 90112) | IC50 CEM/0 (CEM/0) | IC50 Molt4/C8 (Molt4/C8) | IC50 FM3A/0 (FM3A/0) | EC50 CMV Davis, AD-169 (HEL) (CMV Davis, AD-169) | MIC A. fumigatus ATCC 2895 (A. fumigatus ATCC 2895) | MIC C. albicans ATCC 24433 (C. albicans ATCC 24433) | anti-viral activity against BVDV (in words) (BVDV strain Pe515) | MIC E. coli ATCC 25922 (E. coli ATCC 25922) | EC50 HSV-1 (KOS) (E6SM) (HSV-1 (KOS)) | further results
CCCOC1C(Cc2ccccc2)OC2COC(c3ccccc3)OC2C1OCCC (stereo not shown) [Compound A1] | >20 µg/mL | >4 µg/mL | >16 µg/mL | >100/>100/>100 μg/ml | >25 µg/mL | >25 µg/mL | >16 µg/mL | >25 µg/mL | >25 µg/mL | No anti-tumor activity | >25 µg/mL | >200 µg/mL | >200 µg/mL | >200 µg/mL | >20 µg/mL | >25 µg/mL | >25 µg/mL | significant anti-viral activity | >25 µg/mL | >16 µg/mL | IC50 L1210/0 (L1210/0): >200 µg/mL
CCCCOC1C(Cc2ccccc2)OC2COC(c3ccccc3)OC2C1OCCCC (stereo not shown) [Compound A2] | >20 µg/mL | >20 µg/mL | >16 µg/mL | >100/>100/>100 μg/ml | >25 µg/mL | >25 µg/mL | >16 µg/mL | >25 µg/mL | >25 µg/mL | moderate anti-tumor activity | >25 µg/mL | 27 ± 2 µg/mL (≈ 59.4 µM) | 19 ± 1 µg/mL (≈ 41.8 µM) | 22 ± 0 µg/mL (≈ 48.4 µM) | >20 µg/mL | >25 µg/mL | >25 µg/mL | moderate activity | >25 µg/mL | >16 µg/mL | IC50 L1210/0 (L1210/0): 82 ± 7 µg/mL (≈ 180 µM)
CC(C)OC1C(c2ccccc2)OC2COC(c3ccccc3)OC2C1OC(C)C (stereo not shown) [Compound A3] | >20 µg/mL | >4 µg/mL |  | >100 µg/mL | >25 µg/mL | >25 µg/mL | >8 µg/mL | >25 µg/mL | >25 µg/mL |  | >25 µg/mL |  |  |  | >5 µg/mL | >25 µg/mL | >25 µg/mL | significant anti-viral activity | >25 µg/mL | >8 µg/mL | EC50 VZV (HEL) OKA (VZV OKA; VZV-induced plaque formation, human embryonic lung HEL cell cultures, OKA strain): 1.1 µg/mL (≈ 2.67 µM); activity against VZV (in words) (VZV OKA; first set of screenings): showed activity against VZV; EC50 (μg/ml) BVDV (BVDV strain Pe515; strain Pe515, MDBK cells, MTS method, values separated by / are independent experiments): < 0.8 µg/mL
NC(=O)c1ncn([C@@H]2O[C@H](CO)[C@@H](O)[C@H]2O)n1 [Ribavirin, reference compound] |  |  |  |  |  |  |  |  |  |  |  |  |  |  |  |  |  |  |  |  | EC50 (BVDV strain Pe515; Bovine viral diarrhea virus isolates and strains, strain Pe515, MDBK cells, MTS method, values separated by / are independent experiments, read-out: EC50 (μg/ml) BVDV): 40 µg/mL (≈ 164 µM)
